Values quoted from earlier work as cited in patent US12484617B2, “Oral pouch product” (Altria Client Services LLC, priority 2022, dated 2025).

Settings: free base (non-protonated)

CN1CCCC1c1cccnc1 (stereo not shown) [Free-base nicotine, 3-(1-methyl-2-pyrrolidinyl)pyridine]
pKa value: about 8
